In ChEMBL document CHEMBL5653631, “A Potent and Selective ULK1 Inhibitor Suppresses Autophagy and Sensitizes Cancer Cells to Nutrient Stress” (iScience, 2018):

What was measured:
[1] = biological target: T1, Ephrin type-B receptor 2 (Homo sapiens) (UniProt P29323); experiment: Inhibition of human recombinant EphB2 at 15 nM in presence of ATP by radiometric assay relative to control
T1 sequence (whole entry): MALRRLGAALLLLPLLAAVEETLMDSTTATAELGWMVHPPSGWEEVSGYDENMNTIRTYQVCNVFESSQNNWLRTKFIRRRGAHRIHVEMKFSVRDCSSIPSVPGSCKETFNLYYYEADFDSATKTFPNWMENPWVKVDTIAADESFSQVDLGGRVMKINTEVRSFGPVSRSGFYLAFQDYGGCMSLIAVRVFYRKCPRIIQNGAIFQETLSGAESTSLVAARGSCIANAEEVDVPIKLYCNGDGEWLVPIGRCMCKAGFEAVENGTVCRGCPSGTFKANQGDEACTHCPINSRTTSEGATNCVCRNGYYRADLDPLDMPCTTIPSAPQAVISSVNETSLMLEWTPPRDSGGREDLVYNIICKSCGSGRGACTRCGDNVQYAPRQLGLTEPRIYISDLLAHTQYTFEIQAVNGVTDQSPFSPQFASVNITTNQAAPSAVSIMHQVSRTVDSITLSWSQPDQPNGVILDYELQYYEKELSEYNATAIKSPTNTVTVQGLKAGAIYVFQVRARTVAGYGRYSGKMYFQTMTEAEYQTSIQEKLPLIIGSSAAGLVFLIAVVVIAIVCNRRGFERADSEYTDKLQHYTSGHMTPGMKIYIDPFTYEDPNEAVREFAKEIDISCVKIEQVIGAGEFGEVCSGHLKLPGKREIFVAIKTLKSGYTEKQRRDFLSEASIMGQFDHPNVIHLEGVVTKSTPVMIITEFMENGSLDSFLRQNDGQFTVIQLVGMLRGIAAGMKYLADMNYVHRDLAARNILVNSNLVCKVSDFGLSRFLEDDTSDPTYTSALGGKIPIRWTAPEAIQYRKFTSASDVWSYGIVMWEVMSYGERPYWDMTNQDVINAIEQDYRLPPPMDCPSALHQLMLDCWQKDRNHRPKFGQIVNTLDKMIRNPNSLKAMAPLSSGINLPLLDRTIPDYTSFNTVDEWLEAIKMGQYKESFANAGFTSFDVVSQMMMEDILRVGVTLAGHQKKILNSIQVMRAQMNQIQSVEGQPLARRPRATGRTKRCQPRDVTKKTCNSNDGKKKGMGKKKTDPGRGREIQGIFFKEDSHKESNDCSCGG

[2] = biological target: T2, Serine/threonine-protein kinase DCLK2 (Homo sapiens) (UniProt Q8N568); experiment: Inhibition of human recombinant DCAMKL2 at 15 nM related to control ULK1
T2 sequence (whole entry): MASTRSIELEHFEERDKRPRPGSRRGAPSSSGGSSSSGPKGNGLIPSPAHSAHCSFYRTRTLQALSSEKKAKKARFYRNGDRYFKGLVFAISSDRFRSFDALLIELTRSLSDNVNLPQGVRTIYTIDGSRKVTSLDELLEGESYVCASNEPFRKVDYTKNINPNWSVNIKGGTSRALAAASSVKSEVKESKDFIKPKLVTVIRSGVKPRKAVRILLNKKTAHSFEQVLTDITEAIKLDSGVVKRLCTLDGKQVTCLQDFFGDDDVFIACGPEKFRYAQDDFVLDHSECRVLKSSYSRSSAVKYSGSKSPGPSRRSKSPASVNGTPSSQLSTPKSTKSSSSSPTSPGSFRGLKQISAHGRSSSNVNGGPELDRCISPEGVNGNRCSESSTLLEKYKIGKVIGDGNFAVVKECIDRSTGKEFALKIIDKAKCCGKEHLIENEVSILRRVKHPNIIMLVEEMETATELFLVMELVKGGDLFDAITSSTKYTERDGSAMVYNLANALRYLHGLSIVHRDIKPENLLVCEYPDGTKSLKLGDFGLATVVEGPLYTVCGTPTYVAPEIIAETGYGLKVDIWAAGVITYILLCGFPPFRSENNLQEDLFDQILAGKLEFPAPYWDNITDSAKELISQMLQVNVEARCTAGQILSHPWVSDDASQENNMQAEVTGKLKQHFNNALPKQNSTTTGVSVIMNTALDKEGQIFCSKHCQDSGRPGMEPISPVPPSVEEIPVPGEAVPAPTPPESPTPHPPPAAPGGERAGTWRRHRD

[3] = biological target: MAP kinase-interacting serine/threonine-protein kinase 2 (Homo sapiens, UniProt Q9HBH9); experiment: Inhibition of human recombinant MNK2
[4] = biological target: T3, MAP kinase-activated protein kinase 5 (Homo sapiens) (UniProt Q8IW41); experiment: Inhibition of human recombinant MAPKAPK5 at 40 nM in presence of ATP by radiometric assay relative to control
T3 sequence (whole entry): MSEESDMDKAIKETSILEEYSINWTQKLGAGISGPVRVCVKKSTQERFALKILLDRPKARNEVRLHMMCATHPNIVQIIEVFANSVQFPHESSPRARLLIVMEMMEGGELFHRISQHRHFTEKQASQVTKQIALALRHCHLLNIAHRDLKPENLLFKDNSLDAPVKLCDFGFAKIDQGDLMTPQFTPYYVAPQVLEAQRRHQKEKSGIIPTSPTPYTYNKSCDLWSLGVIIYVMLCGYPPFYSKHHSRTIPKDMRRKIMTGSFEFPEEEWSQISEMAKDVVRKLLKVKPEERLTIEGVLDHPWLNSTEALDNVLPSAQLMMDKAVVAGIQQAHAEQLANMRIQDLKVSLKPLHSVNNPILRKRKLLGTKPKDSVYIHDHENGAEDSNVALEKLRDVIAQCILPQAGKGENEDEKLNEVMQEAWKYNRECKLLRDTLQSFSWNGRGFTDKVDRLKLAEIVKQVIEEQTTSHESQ

[5] = biological target: Protein-tyrosine kinase 2-beta (Homo sapiens) (UniProt Q14289); experiment: Inhibition of human recombinant PYK2 at 40 nM in presence of ATP by radiometric assay relative to control
Protein-tyrosine kinase 2-beta (Homo sapiens), sequence (Q14289 whole entry, looked up): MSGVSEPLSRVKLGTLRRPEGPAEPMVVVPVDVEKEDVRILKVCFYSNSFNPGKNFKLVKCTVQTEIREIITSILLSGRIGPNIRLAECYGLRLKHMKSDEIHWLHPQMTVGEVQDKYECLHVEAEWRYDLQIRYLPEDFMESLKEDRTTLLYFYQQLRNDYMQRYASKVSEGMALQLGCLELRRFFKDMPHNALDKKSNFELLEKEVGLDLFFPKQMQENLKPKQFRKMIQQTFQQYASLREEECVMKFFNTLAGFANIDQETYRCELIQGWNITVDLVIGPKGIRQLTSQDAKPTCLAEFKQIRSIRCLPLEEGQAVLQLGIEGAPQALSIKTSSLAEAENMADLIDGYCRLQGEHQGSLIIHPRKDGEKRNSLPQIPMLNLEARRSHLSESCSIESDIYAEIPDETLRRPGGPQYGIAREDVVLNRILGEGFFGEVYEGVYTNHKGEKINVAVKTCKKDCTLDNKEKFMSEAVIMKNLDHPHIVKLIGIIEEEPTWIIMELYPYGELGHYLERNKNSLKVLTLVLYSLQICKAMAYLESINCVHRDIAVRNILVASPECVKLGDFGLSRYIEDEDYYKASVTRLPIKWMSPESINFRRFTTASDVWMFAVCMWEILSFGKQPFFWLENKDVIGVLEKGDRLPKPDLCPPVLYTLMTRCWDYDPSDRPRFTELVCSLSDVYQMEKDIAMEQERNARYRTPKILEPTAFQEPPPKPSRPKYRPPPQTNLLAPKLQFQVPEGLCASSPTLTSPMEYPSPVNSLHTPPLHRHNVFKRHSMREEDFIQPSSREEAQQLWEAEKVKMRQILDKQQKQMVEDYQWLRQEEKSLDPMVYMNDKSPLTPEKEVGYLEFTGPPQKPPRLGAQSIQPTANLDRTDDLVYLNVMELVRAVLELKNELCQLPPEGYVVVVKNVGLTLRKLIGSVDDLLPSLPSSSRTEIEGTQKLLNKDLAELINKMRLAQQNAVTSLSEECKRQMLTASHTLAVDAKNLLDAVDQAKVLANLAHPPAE

MAP kinase-interacting serine/threonine-protein kinase 2, sequence (Q9HBH9 whole entry): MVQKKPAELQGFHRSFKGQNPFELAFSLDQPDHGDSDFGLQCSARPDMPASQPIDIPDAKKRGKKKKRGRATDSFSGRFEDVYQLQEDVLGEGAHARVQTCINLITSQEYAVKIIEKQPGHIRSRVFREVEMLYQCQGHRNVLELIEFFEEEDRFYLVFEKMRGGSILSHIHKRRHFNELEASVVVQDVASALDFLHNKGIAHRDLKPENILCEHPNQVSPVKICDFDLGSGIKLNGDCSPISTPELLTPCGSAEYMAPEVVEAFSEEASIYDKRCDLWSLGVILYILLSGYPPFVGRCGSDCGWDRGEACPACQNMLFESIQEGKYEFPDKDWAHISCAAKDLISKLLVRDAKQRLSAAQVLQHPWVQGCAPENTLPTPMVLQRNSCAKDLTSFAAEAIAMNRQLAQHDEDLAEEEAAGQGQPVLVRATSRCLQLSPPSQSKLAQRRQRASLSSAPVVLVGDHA

| inhibition [1] | fold change (FC) [2] | IC50 [3] | inhibition [4] | inhibition [5] | Structure (SMILES) |
| --- | --- | --- | --- | --- | --- |
| 7% | 0.14 | – | – | – | CC(C)[C@H](NC(=O)c1cc(-c2cnn3cc(-c4ccc(OCCN5CCCCC5)cc4)cnc23)cs1)C(F)(F)F |
| – | – | 22 nM | 0% | 3% | O=C(N[C@@H](C1CC1)C(F)(F)F)c1cc(-c2cnn3cc(-c4ccc(F)cc4)cnc23)cs1 |
